Patent US20060100224A1, “Piperidine ouracil used as a medicament for treating bacterial infections” (priority 2002, published 2006)

These compounds were tested against T1, Pol III from S. aureus (PolC) (Staphylococcus aureus, UniProt P0C1P9) (assay: Determination of the IC50 for Polymerase III (PolC, luciferase-coupled pyrophosphate detection)). Conditions: purified PolC ~2 nM, 30° C., 30 min, activated calf thymus DNA.
T1 construct: His tag (pET15b) (N); made in house; host or cells: E. coli BL21(DE3)
T1 sequence (P0C1P9 1-1435): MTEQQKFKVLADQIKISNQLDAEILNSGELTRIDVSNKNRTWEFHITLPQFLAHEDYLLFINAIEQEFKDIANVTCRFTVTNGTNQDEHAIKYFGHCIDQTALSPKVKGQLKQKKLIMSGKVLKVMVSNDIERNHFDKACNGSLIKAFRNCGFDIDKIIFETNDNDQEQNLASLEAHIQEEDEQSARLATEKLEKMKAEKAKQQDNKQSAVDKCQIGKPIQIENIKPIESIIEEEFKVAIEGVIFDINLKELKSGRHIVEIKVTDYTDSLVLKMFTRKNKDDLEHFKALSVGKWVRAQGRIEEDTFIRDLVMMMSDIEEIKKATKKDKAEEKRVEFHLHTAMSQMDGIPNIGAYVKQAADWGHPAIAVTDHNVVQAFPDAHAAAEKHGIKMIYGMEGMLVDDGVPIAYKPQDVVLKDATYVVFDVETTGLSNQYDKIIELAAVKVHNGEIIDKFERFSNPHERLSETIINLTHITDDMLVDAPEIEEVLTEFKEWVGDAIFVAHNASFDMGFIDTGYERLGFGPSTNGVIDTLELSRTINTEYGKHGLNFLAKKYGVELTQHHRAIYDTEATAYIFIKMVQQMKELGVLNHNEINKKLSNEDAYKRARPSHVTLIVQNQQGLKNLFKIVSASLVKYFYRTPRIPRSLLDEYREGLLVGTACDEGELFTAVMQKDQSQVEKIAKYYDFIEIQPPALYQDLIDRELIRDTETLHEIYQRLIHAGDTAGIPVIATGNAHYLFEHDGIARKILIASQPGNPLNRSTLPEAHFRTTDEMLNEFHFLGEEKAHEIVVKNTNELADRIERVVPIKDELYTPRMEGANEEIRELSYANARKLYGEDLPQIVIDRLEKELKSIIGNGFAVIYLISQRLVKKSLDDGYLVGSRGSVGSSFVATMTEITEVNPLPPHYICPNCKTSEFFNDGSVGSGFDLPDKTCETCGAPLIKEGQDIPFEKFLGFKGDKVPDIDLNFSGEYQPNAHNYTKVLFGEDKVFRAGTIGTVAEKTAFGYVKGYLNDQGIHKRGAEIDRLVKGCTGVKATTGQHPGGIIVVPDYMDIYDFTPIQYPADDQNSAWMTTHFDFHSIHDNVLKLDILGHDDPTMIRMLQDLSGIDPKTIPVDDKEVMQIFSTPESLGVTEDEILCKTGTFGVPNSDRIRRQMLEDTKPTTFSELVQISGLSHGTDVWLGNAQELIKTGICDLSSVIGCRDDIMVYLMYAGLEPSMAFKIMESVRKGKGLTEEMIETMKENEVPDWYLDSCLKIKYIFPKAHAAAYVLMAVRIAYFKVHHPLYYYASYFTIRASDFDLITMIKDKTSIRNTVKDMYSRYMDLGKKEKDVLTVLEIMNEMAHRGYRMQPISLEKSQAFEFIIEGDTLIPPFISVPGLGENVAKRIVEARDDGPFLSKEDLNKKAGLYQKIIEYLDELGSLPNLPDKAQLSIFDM
Format: biochemical
Source text: Cloning, Expression and Purification of Pol III from S. aureus
To clone polC with an N-terminal His tag, the structural gene polC is amplified from S. aureus genomic DNA with the aid of PCR. The primers SAPol 31 5′-[…]-3′ and SAPolrev 5′-[…]-3′ are used to introduce the NdeI and BamHI restriction cleavage sites respectively in front of and behind the amplified gene. After the PCR product which is 4300 bp in size has been digested with NdeI and BamHI, it is ligated into the vector pET15b (Novagen, USA), which has likewise been digested with NdeI and BamHI, and transformed into E. coli XL-1 Blue.
After transformation into E. coli BL21(DE3), the cells are cultivated for expression of PolC at 30° C. in LB medium with 100 μg/ml ampicillin until the OD595 nm is 0.5, cooled to 18° C. and, after addition of 1 mM IPTG, incubated for a further 20 hours. The cells are harvested by centrifugation, washed once in PBS with 1 mM PMSF and taken up in 50 mM NaH2PO4 pH 8.0, 10 mM imidazole, 2 mM β-mercaptoethanol, 1 mM PMSF, 20% glycerol. The cells are disrupted using a French press at 12,000 psi, the cell detritus is removed by centrifugation ([…]×g, 120 min, 4° C.) and the supernatant is stirred with an appropriate amount of Ni-NTA-agarose (from Quiagen, Germany) at 4° C. for 1 hour. After the gel matrix has been packed into a column it is washed with 50 mM NaH2PO4 pH 8.0, 2 mM β-mercaptoethanol, 20 mM imidazole, 10% glycerol, and the purified protein is then eluted with the same buffer containing 100 mM imidazole. The purified protein is mixed with 50% glycerol and stored at −20° C.
Determination of the IC50 for Polymerase III
The activity of PolC is measured in an enzymatically coupled reaction, with the pyrophosphate formed during the polymerization being converted with the aid of ATP sulfurylase into ATP, which is detected using firefly luciferase. The reaction mixture contains, in a final volume of 50 μl, 50 mM Tris/Cl pH 7.5; 5 mM DTT, 10 mM MgCl2, 30 mM NaCl, 0.1 mg/ml BSA, 10% glycerol, 20 μM each dATP, dTTP, dCTP, 2U/ml activated calf thymus DNA (from Worthington, USA), 20 μM APS and 0.06 mM luciferin. The reaction is started by adding purified PolC in a final concentration of ˜2 nM and is incubated at 30° C. for 30 min. The amount of pyrophosphate formed is then converted into ATP by adding ATP sulfurylase (Sigma, USA) in a final concentration of 5 nM and incubating at 30° C. for 15 min. After addition of 0.2 nM firefly luciferase, the luminescence is measured in a luminometer for 60 s. The IC50 is reported as the concentration of an inhibitor which leads to 50% inhibition of the enzymic activity of PolC.

Going from `CCc1cc(Nc2cc(=O)n(CC3CCN(C(=O)c4ccno4)CC3)c(=O)[nH]2)ccc1C` [Example 9] to `O=C(c1csnn1)N1CCC(Cn2c(=O)cc(Nc3ccc4c(c3)CCC4)[nH]c2=O)CC1` [Example 13], the IC50 falls from 140 nM to 90 nM (1.6-fold).

First: O=C(c1nc[nH]n1)N1CCCC(Cn2c(=O)cc(Nc3ccc4c(c3)CCC4)[nH]c2=O)C1 (stereo not drawn) [Example 17]
Second: O=C(c1cccnc1)N1CCCC(Cn2c(=O)cc(Nc3ccc4c(c3)CCC4)[nH]c2=O)C1 (stereo not drawn) [Example 26]
The IC50 of the first is 1.5-fold higher: 340 nM for the first, 220 nM for the second. The second is the more potent here.

Compared with `Cc1nnsc1-c1nc(C(=O)N2CCC(Cn3c(=O)cc(Nc4ccc5c(c4)CCC5)[nH]c3=O)CC2)cs1` [Example 21], `Cc1ccoc1C(=O)N1CCCC(Cn2c(=O)cc(Nc3ccc4c(c3)CCC4)[nH]c2=O)C1` (stereo not drawn) [Example 39] is 3-fold higher in IC50: 110 nM for the first, 330 nM for the second. The first is the more potent here.
